Laboratory results: ChEMBL document CHEMBL3045835, “Comparative study of conventional and microwave-assisted synthesis of some Schiff bases and their potential as antimicrobial agents” (2012)
≈ marks a conversion by molar mass, not a printed value.

Legend:
Format in all cases: functional
Pseudomonas fluorescens [1] = test: Antibacterial activity against Pseudomonas fluorescens MTCC 2421 after 24 hr by broth dilution method; conditions: MTCC 2421, 24 h
Pseudomonas fluorescens [2] = test: Antibacterial activity against Pseudomonas fluorescens MTCC 2421 at 500 ug/ml after 18 hr by cup-plate method; conditions: MTCC 2421, 18 h, read-out: DIZ
Pseudomonas aeruginosa [3] = test: Antibacterial activity against Pseudomonas aeruginosa MTCC 424 after 24 hr by broth dilution method; conditions: MTCC 424, 24 h
Escherichia coli [4] = test: Antibacterial activity against Escherichia coli MTCC 1573 at 1500 ug/ml after 18 hr by cup-plate method; conditions: MTCC 1573, 18 h, read-out: DIZ
Aspergillus niger [5] = test: Antifungal activity against Aspergillus niger MTCC 2546 at 100 ug/ml after 18 hr by cup-plate method; conditions: MTCC 2546, 18 h, read-out: DIZ
Micrococcus luteus [6] = test: Antibacterial activity against Micrococcus luteus MTCC 1538 at 200 ug/ml after 18 hr by cup-plate method; conditions: MTCC 1538, 18 h, read-out: DIZ
Staphylococcus aureus [7] = test: Antibacterial activity against Staphylococcus aureus MTCC 1430 at 200 ug/ml after 18 hr by cup-plate method; conditions: MTCC 1430, 18 h, read-out: DIZ
Penicillium chrysogenum [8] = test: Antifungal activity against Penicillium chrysogenum MTCC 161 at 1500 ug/ml after 18 hr by cup-plate method; conditions: MTCC 161, 18 h, read-out: DIZ
Pseudomonas aeruginosa [9] = test: Antibacterial activity against Pseudomonas aeruginosa MTCC 424 at 100 ug/ml after 18 hr by cup-plate method; conditions: MTCC 424, 18 h, read-out: DIZ
Micrococcus luteus [10] = test: Antibacterial activity against Micrococcus luteus MTCC 1538 at 100 ug/ml after 18 hr by cup-plate method; conditions: MTCC 1538, 18 h, read-out: DIZ
Penicillium chrysogenum [11] = test: Antifungal activity against Penicillium chrysogenum MTCC 161 at 1000 ug/ml after 18 hr by cup-plate method; conditions: MTCC 161, 18 h, read-out: DIZ
Pseudomonas fluorescens [12] = test: Antibacterial activity against Pseudomonas fluorescens MTCC 2421 at 200 ug/ml after 18 hr by cup-plate method; conditions: MTCC 2421, 18 h, read-out: DIZ
Aspergillus niger [13] = test: Antifungal activity against Aspergillus niger MTCC 2546 at 200 ug/ml after 18 hr by cup-plate method; conditions: MTCC 2546, 18 h, read-out: DIZ
Bacillus pumilus [14] = test: Antibacterial activity against Bacillus pumilus MTCC 1456 after 24 hr by broth dilution method; conditions: MTCC 1456, 24 h
Bacillus pumilus [15] = test: Antibacterial activity against Bacillus pumilus MTCC 1456 at 500 ug/ml after 18 hr by cup-plate method; conditions: MTCC 1456, 18 h, read-out: DIZ
Bacillus subtilis [16] = test: Antibacterial activity against Bacillus subtilis MTCC 441 at 200 ug/ml after 18 hr by cup plate method; conditions: MTCC 441, 18 h, read-out: DIZ
Bacillus subtilis [17] = test: Antibacterial activity against Bacillus subtilis MTCC 441 at 100 ug/ml after 18 hr by cup plate method; conditions: MTCC 441, 18 h, read-out: DIZ
Micrococcus luteus [18] = test: Antibacterial activity against Micrococcus luteus MTCC 1538 at 500 ug/ml after 18 hr by cup-plate method; conditions: MTCC 1538, 18 h, read-out: DIZ
Escherichia coli [19] = test: Antibacterial activity against Escherichia coli MTCC 1573 at 100 ug/ml after 18 hr by cup-plate method; conditions: MTCC 1573, 18 h, read-out: DIZ
Penicillium chrysogenum [20] = test: Antifungal activity against Penicillium chrysogenum MTCC 161 at 100 ug/ml after 18 hr by cup-plate method; conditions: MTCC 161, 18 h, read-out: DIZ
Bacillus pumilus [21] = test: Antibacterial activity against Bacillus pumilus MTCC 1456 at 1000 ug/ml after 18 hr by cup-plate method; conditions: MTCC 1456, 18 h, read-out: DIZ
Staphylococcus aureus [22] = test: Antibacterial activity against Staphylococcus aureus MTCC 1430 at 1500 ug/ml after 18 hr by cup-plate method; conditions: MTCC 1430, 18 h, read-out: DIZ
Aspergillus niger [23] = test: Antifungal activity against Aspergillus niger MTCC 2546 at 500 ug/ml after 18 hr by cup-plate method; conditions: MTCC 2546, 18 h, read-out: DIZ
Pseudomonas aeruginosa [24] = test: Antibacterial activity against Pseudomonas aeruginosa MTCC 424 at 200 ug/ml after 18 hr by cup-plate method; conditions: MTCC 424, 18 h, read-out: DIZ
Staphylococcus aureus [25] = test: Antibacterial activity against Staphylococcus aureus MTCC 1430 at 100 ug/ml after 18 hr by cup-plate method; conditions: MTCC 1430, 18 h, read-out: DIZ
Staphylococcus aureus [26] = test: Antibacterial activity against Staphylococcus aureus MTCC 1430 at 500 ug/ml after 18 hr by cup-plate method; conditions: MTCC 1430, 18 h, read-out: DIZ
Bacillus subtilis [27] = test: Antibacterial activity against Bacillus subtilis MTCC 441 at 1000 ug/ml after 18 hr by cup plate method; conditions: MTCC 441, 18 h, read-out: DIZ

O=c1c(/C=N/c2ccc(Cl)cc2)coc2ccccc12
MIC (Pseudomonas fluorescens [1]): 300 µg/mL (≈ 1060 µM) | zone of inhibition at 500 µg/mL (Pseudomonas fluorescens [2]): 14 mm | MIC (Pseudomonas aeruginosa [3]): 200 µg/mL (≈ 705 µM) | zone of inhibition at 1500 µg/mL (Escherichia coli [4]): 20 mm | zone of inhibition at 100 µg/mL (Aspergillus niger [5]): 16 mm | zone of inhibition at 200 µg/mL (Micrococcus luteus [6]): 19 mm | zone of inhibition at 200 µg/mL (Staphylococcus aureus [7]): 14 mm | zone of inhibition at 1500 µg/mL (Penicillium chrysogenum [8]): 21 mm | zone of inhibition at 100 µg/mL (Pseudomonas aeruginosa [9]): 16 mm | zone of inhibition at 100 µg/mL (Micrococcus luteus [10]): 16 mm | zone of inhibition at 1000 µg/mL (Penicillium chrysogenum [11]): 20 mm | zone of inhibition at 200 µg/mL (Pseudomonas fluorescens [12]): 12 mm | zone of inhibition at 200 µg/mL (Aspergillus niger [13]): 18 mm | MIC (Bacillus pumilus [14]): 200 µg/mL (≈ 705 µM) | zone of inhibition at 500 µg/mL (Bacillus pumilus [15]): 17 mm | zone of inhibition at 200 µg/mL (Bacillus subtilis [16]): 15 mm | zone of inhibition at 100 µg/mL (Bacillus subtilis [17]): 13 mm | zone of inhibition at 500 µg/mL (Micrococcus luteus [18]): 21 mm | zone of inhibition at 100 µg/mL (Escherichia coli [19]): 13 mm | zone of inhibition at 100 µg/mL (Penicillium chrysogenum [20]): 15 mm | zone of inhibition at 1000 µg/mL (Bacillus pumilus [21]): 18 mm | zone of inhibition at 1500 µg/mL (Staphylococcus aureus [22]): 21 mm | zone of inhibition at 500 µg/mL (Aspergillus niger [23]): 19 mm | zone of inhibition at 200 µg/mL (Pseudomonas aeruginosa [24]): 18 mm | zone of inhibition at 100 µg/mL (Staphylococcus aureus [25]): 12 mm | zone of inhibition at 500 µg/mL (Staphylococcus aureus [26]): 16 mm | zone of inhibition at 1000 µg/mL (Bacillus subtilis [27]): 19 mm
